pIC50, pKi: −log10 of the molar value. Counter-ions that a name gives are not always drawn.
How the values were obtained:
[1] = antipentylenetetrazole bioassay in mice; assay type: in vivo; settings: Mus musculus, 2 h; for responders at 100 mg/kg: sc, 100 mg/kg compound 30 minutes before fatal dose of pentylenetetrazole (140 mg/kg s.c.), read-out: protection against pentylenetetrazole (animals still alive two hours after administration); for ED50: ip, i.p., pentylenetetrazole 140 mg/kg s.c., read-out: ED50 (dose at which 50% of the treated animals are protected)
Experimental: To evaluate the anticonvulsant activity the compounds of the present invention have been submitted to the antipentylenetetrazole bioassay in mice. The experiments have been carried out by following essentially the methodology described by Berger in J. Pharm. Exptl. Ther. 104, 468, (1952). More particularly, a fatal dose of pentylenetetrazole (140 mg/kg s.c.) was administered to groups of ten mice each, treated, 30 minutes before the administration of the convulsant agent, with a selected dose (100 mg/kg) of the potential anticonvulsant compound. […] Since the animals of the control group died within 30 minutes, the effectiveness of the compounds tested was expressed as the number of animals of the group which were still alive two hours after the administration of pentylenetetrazole, out of the total number of animals of the group (10). In this experiment the compounds of examples 1,2,8, 9, 10, 11, 13, 14, 15, 16, and 17 were fully effective giving a 100% protection against pentylenetetrazole.

benzodiazepine receptors = test: "benzodiazepine receptors" test, displacement of ^3 H-Diazepam from rat brain receptors; assay type: binding; settings: ^3 H-Diazepam displacement, read-out: In vitro Ki
Experimental: The anti-anxiety activity of the compounds of the present invention was shown by submitting the compounds to the "benzodiazepine receptors" test.
These experiments were carried out by following the method described by H. Mohler and T. Okada in Life Sciences, Vol. 20, 2101-2110 (1977).

GABA receptor = GABA receptor assay, displacement of ^3 H-GABA; assay type: binding; settings: for pIC50: ^3 H-GABA displacement; for displacement of ^3 H-GABA from its receptors: at micromolar concentrations
Experimental: Furthermore some of the compounds of the present invention have been tested in the GABA receptor assay. In this test which was carried out by following the methodology described by M. Herschel and R. J. Baldessarini in Life Sciences, 24, 1849-1854, (1979), the compounds of examples 3 and 15 resulted to be active in displacing more than 50% of ^3 H-GABA from its receptors at micromolar concentrations. […] (As for the GABA's mediating effect of the anxiolytic action of benzodiazepines, see for instance S. J. Enna--Biochemical Pharmacology--30, No. 9, 907-913, (1981)).

Row | Structure (SMILES) | responders at 100 mg/kg [1] [%] | pKi (benzodiazepine receptors) | pIC50 (GABA receptor) | displacement of ^3 H-GABA from its receptors (GABA receptor) | ED50 [1] [mg/kg]
1 | Cc1c2c(cn1C)N(C)C(=O)C(OC(=O)c1ccccc1)N=C2c1ccccc1Cl (centres unmarked) [Example 1, 5-(2-chlorophenyl)-1,7-dihydro-1,6,7-trimethyl-3-(phenylcarbonyloxy)-pyrrolo[3,4-e][1,4]diazepin-2(3H)-one] | 100 | 8.17 |  |  | 
2 | Cc1c2c(cn1C)N(C)C(=O)C(OC(=O)C(C)(C)C)N=C2c1ccccc1Cl (centres unmarked) [Example 2, 5-(2-chlorophenyl)-1,7-dihydro-1,6,7-trimethyl-3-(2,2-dimethylpropanoyloxy)-pyrrolo[3,4-e][1,4]diazepin-2(3H)-one] | 100 | 7.76 |  |  | 
3 | Cc1ccccc1C(=O)OC1N=C(c2ccccc2Cl)c2c(cn(C)c2C)N(C)C1=O (centres unmarked) [Example 3] |  | 8.77 | 4.46 | more than 50% | 
4 | CCCC(=O)OC1N=C(c2ccccc2)c2c(cn(C)c2C)NC1=O (centres unmarked) [Example 8, 1,7-dihydro-6,7-dimethyl-3-[(1-oxobutyl)oxy]-5-phenyl-pyrrolo[3,4-e][1,4]diazepin-2(3H)-one] | 100 |  |  |  | 
5 | Cc1c2c(cn1C)N(C)C(=O)C(OC(=O)C(C)C)N=C2c1ccccc1Cl (centres unmarked) [Example 9, 5-(2-chlorophenyl)-1,7-dihydro-1,6,7-trimethyl-3-[(2-methyl-1-oxopropyl)oxy]-pyrrolo[3,4-e][1,4]diazepin-2(3H)-one] | 100 | 8.39 |  |  | 5
6 | COc1ccc(C(=O)OC2N=C(c3ccccc3Cl)c3c(cn(C)c3C)N(C)C2=O)cc1 (centres unmarked) [Example 10] | 100 | 8.09 |  |  | 
7 | Cc1c2c(cn1C)N(C)C(=O)C(OC(=O)c1ccc(-c3ccccc3)cc1)N=C2c1ccccc1Cl (centres unmarked) [Example 11] | 100 |  |  |  | 
8 | Cc1c2c(cn1C)N(C)C(=O)C(OC(=O)CCC(=O)O)N=C2c1ccccc1Cl (centres unmarked) [Example 13, 1,4-butandioic acid 1-[5-(2-chlorophenyl)-1,3,7-trihydro-1,6,7-trimethyl-2-oxo-pyrrolo[3,4-e][1,4]diazepinyl]ester] | 100 |  |  |  | 
9 | Cc1c2c(cn1C)NC(=O)C(OC(=O)CCC(=O)O)N=C2c1ccccc1 (centres unmarked) [Example 14, 1,4-butandioic acid 1-[1,3,7-trihydro-6,7-dimethyl-2-oxo-5-phenyl-pyrrol[3,4-e][1,4]diazepinyl]ester] | 100 |  |  |  | 
10 | CCOC(=O)CCCNC(=O)CCC(=O)OC1N=C(c2ccccc2)c2c(cn(C)c2C)NC1=O (centres unmarked) [Example 15, hydrochloride] | 100 | 7.41 | 5.52 | more than 50% | 
11 | CCOC1N=C(c2ccccc2Cl)c2c(cn(C)c2C)N(C)C1=O (centres unmarked) [Example 16, 5-(2-chlorophenyl)-3-ethoxy-1,7-dihydro-1,6,7-trimethyl-pyrrolo[3,4-e][1,4]diazepin-2(3H)-one hydrochloride hydrate] | 100 | 7.61 |  |  | 
12 | COC1N=C(c2ccccc2Cl)c2c(cn(C)c2C)N(C)C1=O.Cl.O (centres unmarked) [Example 17, 5-(2-chlorophenyl)-1,7-dihydro-3-methoxy-1,6,7-trimethyl-pyrrolo[3,4-e][1,4]diazepin-2(3H)-one hydrochloride hydrate] | 100 | 7.64 |  |  | 8
13 | CCOC(=O)CCCNC1N=C(c2ccccc2Cl)c2c(cn(C)c2C)N(C)C1=O (centres unmarked) [Example 18, 5-(2-chlorophenyl)-3-[[3-(ethoxycarbonyl)propyl]amino]-1,7-dihydro-1,6,7-trimethyl-pyrrolo[3,4-e][1,4]diazepin-2(3H)-one] |  | 7.34 |  |  | 

Source: US4508730A, “1,7-Dihydro-pyrrolo[3,4-e][1,4]diazepin-2(3H)-one derivatives a process for preparing them and their use as anticonvulsant and anti-anxiety agents” (Gruppo Lepetit S.p.A., priority 1982, dated 1985)
